# According to patent US20190169140A1, “IDO1 INHIBITOR AND PREPARATION METHOD AND APPLICATION THEREOF” (SHANDONG LUYE PHARMACEUTICAL CO., LTD., priority 2016, published 2019):
# Target: T1, recombinant human IDO1 enzyme (Homo sapiens, UniProt P14902)
# T1 construct: purchased NTRC (Netherlands Translational Research Center) NTRC-hIDO-10K
# Assay: Test of hIDO1 for enzymatic activity in vitro (NFK Green fluorescence)
# Type: biochemical
# Conditions: not given
# Protocol: 1. Test of hIDO1 for Enzymatic Activity In Vitro
# 1.1 Purpose of Experiment:
# Changes in production of NFK, an IDO1 enzymatic metabolite were detected with NFK Green™ fluorescent molecules. With an IC50 value of a compound as an index, an inhibitory effect of the compound on recombinant human IDO1 enzyme was evaluated.
# The compound was diluted with dimethyl sulfoxide (DMSO) to 1 mM, with 10 gradients, each 3-fold dilution, in duplicate. 48 μL of 50 mM phosphate buffer, having pH of 6.5, was transferred by the Bravo automatic liquid processing platform to the compound plate. Then 2 μL of an already diluted compound/DMSO solution was added. After even mixing, 10 μL of the resultant mixture was transferred to the enzymatic reaction plate.
# IDO1 enzyme was diluted to 20 nM in a reaction buffer (50 mM phosphate buffer with pH of 6.5, 0.1% of Tween-20, 2% of glycerol, 20 mM ascorbic acid, 20 μg/ml catalase, and 20 μM methylene blue), 20 μL of the diluted IDO1 enzyme was transferred to the enzymatic reaction plate, and incubated at 23° C. for 30 minutes. 10 μL of 400 μM L-type tryptophan substrate was added to start reaction. The incubation lasted at 23° C. for 90 minutes. 10 μL of NFK Green™ fluorescent dye was added. The resultant mixture was sealed with the plate sealing film. After incubation at 37° C. for 4 hours, an Envision multi-functional plate reader was used for reading (Ex 400 nm/Em 510 nm).
# A reference well to which the IDO1 enzyme was added but no compound was added was set to have an inhibition rate of 0%, and a reference well to which no IDO1 enzyme was added was set to have an inhibition rate of 100%. Data was analyzed with XLFit 5 to calculate an IC50 value of the compound.
# T1 sequence (P14902 whole entry): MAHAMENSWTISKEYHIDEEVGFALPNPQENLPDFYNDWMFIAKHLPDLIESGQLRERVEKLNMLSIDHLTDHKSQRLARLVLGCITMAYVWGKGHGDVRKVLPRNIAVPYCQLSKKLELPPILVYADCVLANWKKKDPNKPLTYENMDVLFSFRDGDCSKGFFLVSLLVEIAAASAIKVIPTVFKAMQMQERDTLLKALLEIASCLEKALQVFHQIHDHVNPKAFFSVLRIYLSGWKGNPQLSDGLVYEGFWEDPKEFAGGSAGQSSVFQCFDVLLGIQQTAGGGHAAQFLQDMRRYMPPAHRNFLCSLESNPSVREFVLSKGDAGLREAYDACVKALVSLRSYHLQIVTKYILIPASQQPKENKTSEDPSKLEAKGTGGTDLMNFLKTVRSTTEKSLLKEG
row,Structure (SMILES),IC50 [nM]
1,O/N=C(\Nc1ccc(F)c(Br)c1)c1nonc1O [Compound 0026],> 10000
2,COc1nonc1/C(=N/O)Nc1ccc(F)c(Br)c1 [Compound 0052],109
3,CSc1nonc1/C(=N/O)Nc1ccc(F)c(Br)c1 [Compound 0068],113
4,COc1nonc1/C(=N/C#N)Nc1ccc(F)c(Br)c1 [Compound 0069],> 10000
5,NS(=O)(=O)NC1(COc2nonc2/C(=N/O)Nc2ccc(F)c(Br)c2)CC1 [Compound 0070],1380
6,CC(COc1nonc1/C(=N/O)Nc1ccc(F)c(Br)c1)NS(N)(=O)=O (stereo not drawn) [Compound 0071],799
7,NOc1nonc1/C(=N/O)Nc1ccc(F)c(Br)c1 [Compound 0077],> 10000
8,CC(C)(C)OC(=O)NOc1nonc1/C(=N/O)Nc1ccc(F)c(Br)c1 [Compound 0078],> 10000
9,NS(=O)(=O)NC(COc1nonc1/C(=N/O)Nc1ccc(F)c(Br)c1)c1ccccc1 (stereo not drawn) [Compound 0089],981
10,COc1nonc1/C(=N/O)Nc1ccc(F)c(C#N)c1 [Compound 0103],537
11,CS(=O)(=O)NCCOc1nonc1/C(=N/O)Nc1ccc(F)c(Br)c1 [Compound 0106],106
12,O=S(=O)(NCCOc1nonc1/C(=N/O)Nc1ccc(F)c(Br)c1)c1ccccc1 [Compound 0107],1300
13,O=C(NCCOc1nonc1/C(=N/O)Nc1ccc(F)c(Br)c1)c1ccccc1 [Compound 0108],387
14,NS(=O)(=O)NCCCOc1nonc1/C(=N/O)Nc1ccc(F)c(Br)c1 [Compound 0118],55.3
15,CC(CNS(N)(=O)=O)Oc1nonc1/C(=N/O)Nc1ccc(F)c(Br)c1 (stereo not drawn) [Compound 0119],2070
16,N#Cc1cc(N/C(=N\O)c2nonc2OCCNS(N)(=O)=O)ccc1F [Compound 0120],616
17,NS(=O)(=O)NCCOc1nonc1/C(=N/O)Nc1ccc(F)c(C(F)(F)F)c1 [Compound 0121],188
18,NS(=O)(=O)NCCOc1nonc1/C(=N/O)Nc1ccc(F)c(C2CC2)c1 [Compound 0122],565
19,O/N=C(\Nc1ccc(F)c(Br)c1)c1nonc1OC1CCOC1 (stereo not drawn) [Compound 0124],1030
20,COCCCCOc1nonc1/C(=N/O)Nc1ccc(F)c(Br)c1 [Compound 0128],601

row,Structure (SMILES),IC50 [nM]
1,O/N=C(\Nc1ccc(F)c(Br)c1)c1nonc1OCC1COC1 [Compound 0129],426
2,O/N=C(\Nc1ccc(F)c(Br)c1)c1nonc1OCCc1ccccn1 [Compound 0131],702
3,CN(CCOc1nonc1/C(=N/O)Nc1ccc(F)c(Br)c1)Cc1ccccc1 [Compound 0133],1030
4,O/N=C(\Nc1ccc(F)c(Br)c1)c1nonc1SCc1ccccc1Cl [Compound 0134],7150
5,O/N=C(\Nc1ccc(F)c(Br)c1)c1nonc1OCC(F)(F)F [Compound 0135],3290
6,O/N=C(\Nc1ccc(F)c(Br)c1)c1nonc1SC1CCCCC1 [Compound 0137],5710
7,C=CCSc1nonc1/C(=N/O)Nc1ccc(F)c(Br)c1 [Compound 0138],364
8,CNC(=O)COc1nonc1/C(=N/O)Nc1ccc(F)c(Br)c1 [Compound 0139],265
9,CN(C)CCOc1nonc1/C(=N/O)Nc1ccc(F)c(Br)c1 [Compound 0140],197
10,CS(=O)(=O)N1CC(COc2nonc2/C(=N/O)Nc2ccc(F)c(Br)c2)C1 [Compound 0141],452
11,CS(=O)(=O)N1CCC(COc2nonc2/C(=N/O)Nc2ccc(F)c(Br)c2)CC1 [Compound 0142],1310
12,O/N=C(\Nc1ccc(F)c(Br)c1)c1nonc1OCc1c[nH]cn1 [Compound 0143],> 10000
13,O/N=C(\Nc1ccc(F)c(Br)c1)c1nonc1OCc1cncs1 [Compound 0144],> 10000
14,NCCOc1nonc1/C(=N/O)Nc1ccc(F)c(Br)c1 [Compound 0147],71.5
15,O=S(=O)(O)NCCOc1nonc1/C(=N/O)Nc1ccc(F)c(Br)c1 [Compound 0148],147
16,CP(C)(=O)NCCOc1nonc1/C(=N/O)Nc1ccc(F)c(Br)c1 [Compound 0149],290
17,O/N=C(\Nc1ccc(F)c(Br)c1)c1nonc1Oc1ccc(Cl)cc1 [Compound 0150],> 10000
18,NS(=O)(=O)NCCOc1nonc1C(=NO)Nc1ccc(F)c(C(F)F)c1 [Compound 0151],149
19,O=CNCCOc1nonc1/C(=N/O)Nc1ccc(F)c(Br)c1 [Compound 0153],153
20,NS(=O)(=O)NCCOc1nonc1/C(=N/O)Nc1cc(F)c(Cl)c(F)c1 [Compound 0156],5700

row,Structure (SMILES),IC50 [nM]
1,NS(=O)(=O)NCCSc1nonc1/C(=N/O)Nc1ccc(F)c(C(F)(F)F)c1 [Compound 0157],160
2,COc1c(F)cc(N/C(=N\O)c2nonc2OCCNS(N)(=O)=O)cc1F [Compound 0158],4360
3,NS(=O)(=O)NCCOc1nonc1/C(=N/O)Nc1ccc(Cl)c(Cl)c1 [Compound 0160],3830
4,NS(=O)(=O)NCCOc1nonc1/C(=N/O)Nc1ccc(F)c(F)c1 [Compound 0162],928
5,OCCOc1nonc1/C(=N/O)Nc1ccc(F)c(Br)c1 [Compound 0177],279
6,O=C1NCCN1CCOc1nonc1/C(=N/O)Nc1ccc(F)c(Br)c1 [Compound 0179],594
7,CCS(=O)(=O)CCOc1nonc1/C(=N/O)Nc1ccc(F)c(Br)c1 [Compound 0180],> 10000
8,CN(C)CCN(C)CCOc1nonc1/C(=N/O)Nc1ccc(F)c(Br)c1 [Compound 0182],673
9,CCN(CC)C(=O)COc1nonc1/C(=N/O)Nc1ccc(F)c(Br)c1 [Compound 0183],1120
10,NS(=O)(=O)NCCOc1nonc1/C(=N/O)Nc1ccc(Cl)c(C(F)(F)F)c1 [Compound 0184],4830
11,NS(=O)(=O)NCCOc1nonc1/C(=N/O)Nc1cc(F)c(F)c(Br)c1 [Compound 0189],590
12,NS(=O)(=O)NCCOc1nonc1/C(=N/O)Nc1ccc(F)c(Cl)c1 [Compound 0190],945
13,NS(=O)(=O)N[C@H]1C[C@H](Oc2nonc2/C(=N/O)Nc2ccc(F)c(Br)c2)C1 [Compound 0222],466
14,NS(=O)(=O)N[C@H]1C[C@@H](Oc2nonc2/C(=N/O)Nc2ccc(F)c(Br)c2)C1 [Compound 0225],274
15,O=S(=O)(NCCSc1nonc1/C(=N/O)Nc1ccc(F)c(Br)c1)C1CC1 [Compound 0230],203
16,CN(C)S(=O)(=O)NCCSc1nonc1/C(=N/O)Nc1ccc(F)c(Br)c1 [Compound 0232],373
17,NS(=O)(=O)NCC[S+]([O-])c1nonc1/C(=N/O)Nc1ccc(F)c(Br)c1 (stereo not drawn) [Compound 0239],846
18,CCNC(=O)CSc1nonc1C(=NO)Nc1ccc(F)c(Br)c1 [Compound 0300],72.6
19,O=C(CSc1nonc1/C(=N/O)Nc1ccc(F)c(Br)c1)NCC(F)(F)F [Compound 0301],125
20,O=C(CSc1nonc1/C(=N/O)Nc1ccc(F)c(Br)c1)NCC(F)F [Compound 0302],88

# Target: T2, IDO1 enzyme in Hela cells (Homo sapiens, UniProt P14902)
# T2 construct: endogenous in cells; host or cells: Hela cells, induced with recombinant human interferon-γ
# Assay: Test of hIDO1 for cytological activity (Hela cell kynurenine by LCMS, interferon-γ induced)
# Type: cell-based
# Conditions: interferon-γ 100 ng/ml, 20 hours
# Protocol: 2. Test of hIDO1 for Cytological Activity
# Changes in Hela cell kynurenine were detected by an LCMS method. With an IC50 value of a compound as an index, an inhibitory effect of the compound on IDO1 enzyme was evaluated.
# The culture medium, trypsin, and DPBS were preheated in water bath at 37° C. The culture medium was removed by sucking from cell culture, followed by cleaning the cell culture with 10 mL of DPBS; the preheated trypsin was added to the culture flask, which was revolved to make the culture flask covered by trypsin uniformly, and placed into an incubator at 37° C. with 5% CO2 for digestion for 1-2 minutes; 10-15 mL of the culture medium was used to suspend cells each T150, followed by centrifugation at 800 rpm for 5 minutes. 10 mL of the culture medium was used to resuspend the cells. 1 mL of the cell resuspension was pipetted, and counted with Vi-cell; the Hela cells were diluted to 5×10^5/mL with the culture medium, 80 μL of the diluted Hela cells were added to the 96-well cell plate, and incubated in the an incubator at 37° C. with 5% CO2 for 5-6 hours.
# The compound was diluted with DMSO to 1 mM, with 9 gradients, each 3-fold dilution, in duplicate. 5 μL of the already diluted compound DMSO solution was added to the compound plate containing 95 μL of the culture medium. After even mixing, 10 μL of the mixture was transferred to the cell plate.
# 10 μL of recombinant human interferon-γ was added to result in a final concentration of 100 ng/ml, to induce expression of IDO1. Incubation was carried out in the 5% CO2 incubator at 37° C. for 20 hours. 4 μL of 5% (w/v) trichloroacetic acid was added, followed by even mixing and incubation at 50° C. for 30 minutes. After centrifugation at 2400 rpm for 10 minutes, 40 μL of a supernatant was added to a 96-well V-bottom plate, followed by addition of a precipitant. Centrifugation was carried out at 4000 rpm for 10 minutes after even mixing. 100 μL of the supernatant was transferred to a new 96-well V-bottom plate. A content of kynurenine was detected through LCMS.
# A reference well to which the interferon-γ was added but no compound was added was set to have an inhibition rate of 0%, and a reference well to which no Hela cell was added was set to have an inhibition rate of 100%. Data was analyzed with XLFit 5 to calculate an IC50 value of the compound.
# T2 sequence (P14902 whole entry): as above
row,Structure (SMILES),IC50 [nM]
1,COc1nonc1/C(=N/O)Nc1ccc(F)c(Br)c1 [Compound 0052],24.9
2,CSc1nonc1/C(=N/O)Nc1ccc(F)c(Br)c1 [Compound 0068],28.6
3,CS(=O)(=O)NCCOc1nonc1/C(=N/O)Nc1ccc(F)c(Br)c1 [Compound 0106],36.9
4,NS(=O)(=O)NCCCOc1nonc1/C(=N/O)Nc1ccc(F)c(Br)c1 [Compound 0118],64.5
5,CNC(=O)COc1nonc1/C(=N/O)Nc1ccc(F)c(Br)c1 [Compound 0139],100
6,NCCOc1nonc1/C(=N/O)Nc1ccc(F)c(Br)c1 [Compound 0147],123
7,O=S(=O)(O)NCCOc1nonc1/C(=N/O)Nc1ccc(F)c(Br)c1 [Compound 0148],159
8,NS(=O)(=O)NCCOc1nonc1C(=NO)Nc1ccc(F)c(C(F)F)c1 [Compound 0151],25.2
9,O=CNCCOc1nonc1/C(=N/O)Nc1ccc(F)c(Br)c1 [Compound 0153],82.4
10,NS(=O)(=O)NCCSc1nonc1/C(=N/O)Nc1ccc(F)c(C(F)(F)F)c1 [Compound 0157],13.4
11,OCCOc1nonc1/C(=N/O)Nc1ccc(F)c(Br)c1 [Compound 0177],54.2
12,NS(=O)(=O)N[C@H]1C[C@@H](Oc2nonc2/C(=N/O)Nc2ccc(F)c(Br)c2)C1 [Compound 0225],18.7
